Experimental data from patent EP4624454A1, “NON-COVALENT DIMER CATION, AND SALT THEREOF, PREPARATION METHOD THEREFOR AND USE THEREOF” (Suzhou Protonation Chain Biotechnology Co., Ltd, priority 2022, dated 2024).

Experiments:
[1] = system: SH-SY5Y human neuroblastoma cells; test: Parkinson's disease cell model (6-OHDA), cell viability; details: 24 h, read-out: Cell viability (%)
Method: A blank control group (without 6-OHDA) and a model group (with 6-OHDA but without the salt of this example or selegiline) were set.
SH-SY5Y human neuroblastoma cells were uniformly inoculated into a 96-well plate, about 5,000 cells per well. The cells were cultured in a complete DMEM/F12 medium for 6 h. After the cells were completely adhered to the wall, all the media were removed, 100 µL of serum-free DMEM/F12 medium, i.e., a cell culture solution, containing 150 µmol/L of 6-OHDA (a serum-free DMEM/F12 medium without 6-OHDA was added to the blank group), was added to each well, and the cells were incubated and cultured for 24 h.
Then, all the media were removed again, 100 µL of each of serum-free DMEM/ F12 media, i.e., cell culture solutions, containing 0.025 g/mL, 0.05 g/mL, 0.1 g/mL, 0.2 g/mL, 0.4 g/mL and 0.8 g/mL of compound of experimental or control groups (a serum-free DMEM/ F12 medium without compound of experimental or control groups was added to the blank group and a model group) were added to each well according to the groups, and the cells were cultured in a cell culture solution for 24 h.

[2] = system: GES-1 human gastric mucosal epithelial cells; test: cells; type: cell-based; details: GES1, 24 h, read-out: Cell viability (%)
Method: Long-term alcoholics were prone to gastric mucosal damage due to long-term alcohol damage.
A blank control group (without ethanol) and a model group (with ethanol but without the salt or glycyrrhetinic acid in the examples) were set.
The cells were cultured in a complete RPMI 1640 medium for 6 h.
Then, the cell viability was detected. […] Table 2 Cell viability of ethanol-induced damage models of gastric mucosal epithelial cells

C#CCN(C)[C@H](C)Cc1ccccc1 [Selegiline, selegiline]
viability at 25 µg/mL [1]: 33.4%
viability at 50 µg/mL [1]: 37.5%
viability at 100 µg/mL [1]: 43.3%
viability at 200 µg/mL [1]: 49.9%
viability at 400 µg/mL [1]: 58.5%
viability at 800 µg/mL [1]: 69.8%

CC1(C)[C@@H](O)CC[C@]2(C)[C@H]3C(=O)C=C4[C@@H]5C[C@@](C)(C(=O)O)CC[C@]5(C)CC[C@@]4(C)[C@]3(C)CC[C@@H]12 [Glycyrrhetinic acid, glycyrrhetinic acid]
viability at 25 µg/mL [2]: 59.4%
viability at 50 µg/mL [2]: 61.8%
viability at 100 µg/mL [2]: 64.3%
viability at 200 µg/mL [2]: 65.2%
viability at 400 µg/mL [2]: 68.9%
viability at 800 µg/mL [2]: 71.9%
